Assay results reported in ChEMBL document CHEMBL1154115, “NO-glibenclamide derivatives: prototypes of a new class of nitric oxide-releasing anti-diabetic drugs” (Bioorg Med Chem, 2009).
Active and inactive are the calls of the source. No cut-off for these calls is given here.

Key:
[1] = system: Platelet; assay: Inhibition of ADP-induced platelet aggregation in human platelet-rich plasma at 100 uM treated 2 mins before ADP challenge by turbidimetric method; format: functional; design: scale not given: the % may be the effect or the level left
[2] = system: Rattus norvegicus; assay: Hypoglycemic activity in streptozotocin-induced diabetic Wistar rat assessed as reduction in blood glucose AUC level at 10 mg/kg, ip measured for 2 hrs (Rvb= 45318 mg/dl/2 h); format: functional, organism-based; design: dose 10 mg/kg
[3] = Induction of 20 mM glucose-stimulated insulin secretion in human pancreatic islet cells assessed as insulin stimulation index at 10 uM by immunoradiometric assay; format: functional
[4] = Induction of 20 mM glucose-stimulated insulin secretion in human pancreatic islet cells assessed as insulin stimulation index at 100 uM by immunoradiometric assay; format: functional
[5] = system: Liver; assay: Induction of NO release in Wistar rat liver homogenate at 200 uM by amperometric detection method; format: functional, tissue-based
[6] = system: Aorta; assay: Vasorelaxant activity in endothelium-denuded Wistar rat thoracic aortic ring assessed as inhibition of KCl-induced contraction; format: functional, tissue-based

COc1ccc(Cl)cc1C(=O)NCCc1ccc(S(=O)(=O)NC(=O)N[C@H]2CC[C@H](O)CC2)cc1 [4-TRANS-HYDROXY-GLYBENCLAMIDE]
Activity [1]: 76%
AUC [2]: 34500 mg·min/dL
Activity [3]: 6
Activity [4]: 8.2
Activity [5]: inactive

COc1ccc(Cl)cc1C(=O)NCCc1ccc(S(=O)(=O)NC(=O)NC2CCCCC2)cc1 [GLYBURIDE]
Activity [1]: 67%
AUC [2]: 33100 mg·min/dL
Activity [3]: 4.3
Activity [4]: 5.2
Activity [5]: inactive

O=[N+]([O-])OCC(CO[N+](=O)[O-])O[N+](=O)[O-] [NITROGLYCERIN]
Emax [6]: 98%
IC50 [6]: 58.9 nM
Activity [1]: 28%
Activity [5]: 600 nM
